Experimental data taken from publication PMC9127750, “Structure-based design of CDC42 effector interaction inhibitors for the treatment of cancer” (Cell reports, 2022).
Entries after “also recorded” stand apart in the source; their conditions may differ.

What was measured:
[1] = target: T1, RHOJ and PAK1-PBD interaction (Homo sapiens, UniProt Q9H4E5); experiment: CDC42 interaction assay (PAK1-PBD pull-down); type: cell-based; conditions: WM3248 cells; ARN22089 at 10 and 50 μM, lysates incubated with GTP; ARN12405 indicated doses (Fig S2B)
T1 construct: endogenous in cells; host or cells: WM3248 (or WM983B) melanoma cells; PAK1 PBD beads from Cell Biolabs kit
T1 sequence (Q9H4E5 1-211 limits assumed): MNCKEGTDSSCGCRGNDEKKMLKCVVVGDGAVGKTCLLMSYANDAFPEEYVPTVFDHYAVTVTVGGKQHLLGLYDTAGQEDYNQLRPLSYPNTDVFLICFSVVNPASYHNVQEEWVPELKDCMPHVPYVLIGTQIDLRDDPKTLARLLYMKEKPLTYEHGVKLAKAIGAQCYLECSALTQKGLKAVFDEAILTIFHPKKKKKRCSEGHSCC
Experimental: (§1) 24 hours later the lysates from treated and untreated cells were unloaded of guanosine nucleotides and either loaded with GDP or GTPγS. […] Precipitated lysates were then immunoblotted with indicated antibodies.

[2] = target: T2, CDC42 and PAK1-PBD interaction (Homo sapiens, UniProt P60953); experiment: CDC42 interaction assay (PAK1-PBD pull-down); type: cell-based; conditions: WM3248 cells; ARN22089 at 10 and 50 μM, lysates incubated with GTP; ARN12405 indicated doses (Fig S2B)
T2 construct: endogenous in cells; host or cells: WM3248 (or WM983B) melanoma cells; PAK1 PBD beads from Cell Biolabs kit
T2 sequence (P60953 1-188 limits assumed): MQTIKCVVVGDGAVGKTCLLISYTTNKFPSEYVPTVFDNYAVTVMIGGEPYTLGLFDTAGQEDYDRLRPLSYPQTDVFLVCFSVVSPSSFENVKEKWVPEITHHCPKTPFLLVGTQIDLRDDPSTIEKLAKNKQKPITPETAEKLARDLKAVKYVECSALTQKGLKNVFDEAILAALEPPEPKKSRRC
Experimental: as §1

[3] = test system: WM3248, SKMel3, A375, SW480, and SKM28; experiment: cells; conditions: Homo sapiens, read-out: IC50 across cancer cell lines
Experimental: (§2) Cancer cell line viability assay was performed using a CellTiterGlo assay. Cells were cultured in their appropriate media and seeded in white multi-well plates. For the assays, cells were incubated with compound at 37°C overnight, and a CellTiterGlo assay was performed to quantify viable cells.

WM3248 = experiment: cells; conditions: Homo sapiens, WM3248, read-out: IC50 WM3248
Experimental: as §2

SKMel28 melanoma cells = experiment: Cancer cell line viability assay (CellTiterGlo); type: cell-based, Human; conditions: for decrease of activity compared with the hit: SKM28 cells, versus ARN12405; for dose response in SKM28 cell lines: Figure S2F
A375 VMT = experiment: Vascularized microtumor (VMT) assay; type: cell-based, Human; conditions: 2 μM
Experimental: (§3) Briefly, human endothelial colony-forming cell-derived endothelial cells (ECFC-EC) are isolated from cord blood via selection for the CD31 + cell population and cultured in EGM2 medium (Lonza). […] Cancer cells and LF are cultured in DMEM (Corning) containing 10% FBS (Gemini Bio). […] To load the microfluidic device, ECFC-EC and LF (both 8 × 10^6 cells/mL) and cancer cells (2.5 × 10^6 cells/mL) were resuspended in fibrinogen solution (10 mg/mL basal medium). The cell slurry was then mixed with 1 mL thrombin (3 U/mL) to catalyze gel solidification and quickly loaded into the tissue chambers of each VMT unit. […] All cells and VMTs are cultured in a 37°C, 20% O2, 5% O2 environment.
(§4) Fluorescence images were acquired with an Olympus IX70 inverted microscope using SPOT software (SPOT Imaging, Sterling Heights, Michigan). […] Each chamber was normalized to time 0 baseline.

[4] = test system: VMOs (vessels, no tumor cells); experiment: Vascularized micro-organ (VMO) assay; type: cell-based, Human; conditions: no tumor cells (Figure 4D)
Experimental: as §3, §4

## Clc1ccc(Nc2cc(-c3ccncc3)nc(C3CCCNC3)n2)cc1 (centres unmarked) [ARN12405]
[1]
  inhibition of RHOJ - PAK1-PBD interaction: inhibits RHOJ/CDC42-PAK interactions; also recorded: blocked the RHOJ/CDC42 PAK interaction
[2]
  inhibition of CDC42 - PAK1-PBD interaction: inhibits RHOJ/CDC42-PAK interactions; also recorded: blocked the RHOJ/CDC42 PAK interaction

## Clc1ccc(Nc2cc(-c3ccccc3)nc(C3CCCNC3)n2)cc1 (centres unmarked) [ARN21698]
[3]
  IC50: 6.3 to 10.9 µM
WM3248
  IC50: 8.42 µM

## c1ccc(Nc2cc(-c3ccncc3)nc(C3CCCNC3)n2)cc1 (centres unmarked) [ARN21699]
SKMel28 melanoma cells
  decrease of activity compared with the hit: 2 fold

## Clc1cccc(Nc2cc(-c3ccncc3)nc(C3CCCNC3)n2)c1 (centres unmarked) [ARN21700]
SKMel28 melanoma cells
  decrease of activity compared with the hit: 2 fold
WM3248
  IC50: 30.9 µM

## COc1ccc(Nc2cc(-c3ccccc3)nc(C3CCOCC3)n2)cc1 [ARN22162, N-(4-methoxyphenyl)-6-phenyl-2-tetrahydropyran-4-yl-pyrimidin-4-amine]
SKMel28 melanoma cells
  dose response in SKM28 cell lines: no dose response

## CN(C)c1ccc(Nc2cc(-c3ccccc3)nc(C3CCOCC3)n2)cc1 [ARN22163, N4,N4-dimethyl-N1-(6-phenyl-2-tetrahydropyran-4-yl-pyrimidin-4-yl)benzene-1,4-diamine]
SKMel28 melanoma cells
  dose response in SKM28 cell lines: no dose response

## CCn1c(=O)c(-c2ccc(-c3cncs3)cc2Cl)cc2cnc(Nc3ccc(N4CCN(C)CC4)cc3)nc21 [FRAX597]
A375 VMT
  growth of A375 cells and blood vessels in VMT: did not significantly inhibit

## Cc1ccc(F)c(NC(=O)Nc2ccc(-c3cccc4[nH]nc(N)c34)cc2)c1 [linifanib]
[4]
  vessel growth / angiogenesis in VMOs: did inhibit angiogenesis
